Among the data in ChEMBL document CHEMBL1157539, “Thousands of chemical starting points for antimalarial lead identification” (Nature, 2010) are XC50 values, retold here.

For the test, the system named is Plasmodium falciparum. Nature of the test: GSK_TCMDC: Inhibition of Plasmodium falciparum 3D7 in whole erythrocytes, using parasite LDH activity as an index of growth. The conditions noted are these: Plasmodium falciparum, 3D7. It is filed as functional, organism-based.
`COc1ccc(NC(=O)/C=C/c2ccc(Oc3ccccc3Cl)c([N+](=O)[O-])c2)cc1OCCN(C(C)C)C(C)C` showed an XC50 of 883 nM.
Then `COc1ccc2nccc(N/N=C/c3ccccc3[N+](=O)[O-])c2c1`, with 65.9 nM.
As for `COc1ccc2nc(C)cc(N/N=C/c3ccccc3[N+](=O)[O-])c2c1`, the XC50 worked out at 177 nM.
With `CCCNCc1ccc(-c2ccc(CN(CCOC)C(=O)CC3CCCC3=O)cc2)nc1` (stereo not drawn) the figure was 1240 nM; with `O=C(Nc1cccc(-c2nn3ccccc3c2-c2ccnc(Nc3ccc(Cc4ccncc4)cc3)n2)c1)c1c(F)cccc1F`, 296 nM.
With `COc1cc(C(=O)NCCCN2CCN(c3cccc(Cl)c3)CC2)ccc1-c1nc2cc(Cl)c(F)cc2[nH]1` the figure was 1020 nM; with `COc1cc(C)nc2ccc(NC(=O)c3cc([N+](=O)[O-])cc([N+](=O)[O-])c3)cc12`, 385 nM; with `Cc1cc(NC(=O)c2ccc(S(=O)(=O)N(Cc3ccccc3)C(C)C)cc2)no1`, 847 nM.
`CC(C)N1CCN(C(CN2CCN(CCCOc3ccccc3-c3ccccc3)CC2)c2ccc(F)cc2)CC1` (stereo not drawn) yielded an XC50 of 789 nM.
With `CN(CC(=O)Nc1cc(C(F)(F)F)ccc1-n1cncn1)Cc1ccc2ccccc2c1` the figure was 232 nM.
Then `NCC1CCCN1Cc1cccc(-c2ccc(-c3nc4cc(C(F)(F)F)ccc4[nH]3)s2)c1` (stereo not drawn), with 748 nM; and `COc1ccc2c(=NN=Cc3ccc(F)cc3)cc(C)[nH]c2c1`, with 773 nM; and `CCC1(C)CC(CCNCc2ccccc2O)(c2ccc(F)cc2)CCO1` (stereo not drawn), with 880 nM.
`COc1cc2nc(NCC3CCCO3)n3nc(-c4ccccc4)nc3c2cc1OC` (stereo not drawn) had an XC50 of 211 nM.
Then `CC(C)(C)OC(=O)N1CCN(c2ccccc2NC(=O)c2cccc(C(F)(F)F)c2Oc2ccc(F)cc2)CC1`, with 857 nM.
Then `CC(C)CCNCc1c(O)ccc2ccccc12`, with 1670 nM; and `C(=Cc1nc2ccccc2s1)c1ccc2c(c1)OCCO2`, with 393 nM.
For `CCCCN(CCCC)Cc1cc2ccccc2cc1O`, the XC50 is 348 nM.
Then `CCC1(CC)CN(c2ccccc2)c2ccc(O)cc2S(=O)(=O)C1CC(C)C` (stereo not drawn), with 402 nM; and `O=c1cc(NCCCNCc2ccc(Cl)c(Cl)c2)[nH]c2ccc(C(F)(F)F)cc12`, with 524 nM; and `OCc1ccc(-c2cncc(Nc3ccc(F)c(Cl)c3)c2)cc1`, with 88.5 nM.
Then `O=C(NCC1CCN(Cc2cccc(F)c2)C1)c1cc(-c2cccc(C(F)(F)F)c2)cs1` (stereo not drawn), with 992 nM; and `CN(C)c1ccc2nc(N)nc(N)c2c1Cl`, with 475 nM.
`Cc1cccnc1CNc1nccc2c(C)c(C)[nH]c12`: the XC50 stood at 849 nM.
With `Cc1nnsc1C(=O)Nc1ccc(-c2cccc(-c3nc4cccc(C)c4[nH]3)c2)cc1` the figure was 630 nM; with `Cc1nc(C)c(-c2ccc(C(F)(F)F)cc2)c(O)c1Br`, 142 nM; with `O=C(Nc1ccc(Cl)cc1)c1ccc(CN2CCCN(Cc3ccsc3)CC2)cc1`, 862 nM.
Then `COc1ccc(-c2cccc(NC(=O)c3cccc(Cl)c3)c2)cc1CN1CCNCC1`, with 803 nM; and `CC(=O)Nc1cccc(NC(=O)CSc2ccc(-c3nc4ccccc4[nH]3)cn2)c1`, with 559 nM.
Consider `O=S(=O)(Nc1ccc(CCN2CCC(N3CCCCC3)CC2)cc1)c1cccc2cccnc12`, for which the XC50 amounted to 1060 nM.
`CN(C)c1ccc(/N=C2/N/C(=N/c3ccc(N(C)C)cc3)c3ccccc32)cc1` had an XC50 of 848 nM.
Then `NC(=O)c1cccc(Nc2nccc(Nc3ccc(Oc4cccc(Cl)c4)c(Cl)c3)n2)c1`, with 1280 nM.
With `CC(Cc1ccc(C2=CCNCC2)cc1)NCC(O)c1cccc(C(F)(F)F)c1` (stereo not drawn) the figure was 1570 nM; with `COC(=O)/C=C/c1ccc(CC(C)NCC(O)c2cccc(Br)c2)cc1` (stereo not drawn), 725 nM.
With `Nc1ccc2nc(C=Cc3ccccc3)[nH]c2c1` the figure was 749 nM.
As to `O=C(NCC1CN(Cc2ccc(N3CCCC3)o2)CCCO1)c1ccc2c(c1)OCO2` (stereo not drawn), the XC50 amounted to 839 nM.
Then `CN1CCN(CCCN(Cc2ccc(-c3cccc(CNCc4ccc5c(c4)OCO5)c3)cc2)C(=O)NCCc2ccccc2)CC1`, with 845 nM; and `O=C(NC1CC1)c1ccc(N2CCCC(COc3ccccc3F)C2)nc1` (stereo not drawn), with 897 nM.
With `CC(CON1C(N)=NC(N)=NC1(C)C)Cc1ccc(Cl)cc1Cl` (stereo not drawn) the figure was 3.2 nM; with `Cc1ccc(CN(Cc2ccc(C(=O)N(C)C)cc2)Cc2ccc3c(c2)OCCO3)cc1C`, 804 nM.
Then `Cc1cccn2c(=O)c3cc(C(=O)NC(C)c4ccccc4)c(=N)n(CCc4ccccc4)c3nc12` (stereo not drawn), with 554 nM; and `CN(C)CCNCc1cccc(-c2ccc3c(Nc4ccc(Oc5ccccc5)cc4)ccnc3c2)c1`, with 441 nM; and `O=C(Nc1cccc(CN2CCN(C(=O)c3cccs3)CC2)c1)c1cccs1`, with 782 nM.
The compound `COc1ccc(N2CCN(CCCCNC(=O)c3ccc(NC(=O)c4ccc(Cl)c(Cl)c4)cc3)CC2)c(OC)c1` registered an XC50 of 212 nM.
Then `O=C(CNC1=NCCN1)Nc1ccc(NC(=O)Nc2ccc(NC(=O)CNC3=NCCN3)cc2)cc1`, with 781 nM.
Then `CCN(CCCN1CCCCC1)c1cc(C)nc(Nc2ccc(C)c(Br)c2)n1`, with 248 nM.
Then `O=C(Nc1ccccc1Cl)N(Cc1cc(Cl)cc(Cl)c1)CC(O)COc1ccc(Cl)c(F)c1` (stereo not drawn), with 788 nM; and `O=[N+]([O-])c1cccc(CNC2CCN(Cc3ccc4ccccc4c3)CC2)c1`, with 764 nM; and `COc1ccc(N2CCN(CCCCNCc3ccc(NC(=O)c4cc(Cl)cc(Cl)c4)cc3)CC2)c(OC)c1`, with 253 nM.
`Fc1ccc2[nH]c(-c3cccc(-c4ccc(CNCCc5ccncc5)cc4)c3)nc2c1`: the XC50 stood at 115 nM.
With `Nc1cc(-c2ccc(-c3cccs3)s2)nc2ccccc12` the figure was 598 nM; with `COc1ccc(-c2c(-c3ccc(OCc4ccccc4)cc3O)n[nH]c2C(F)(F)F)cc1`, 1170 nM; with `OC1CCCN(Cc2ccc(-c3ccc(-c4nc5ccccc5[nH]4)cc3)cc2)C1` (stereo not drawn), 838 nM.
As to `Cc1cc(NCCCCCCNc2cc(C)nc3c(C)cccc23)c2cccc(C)c2n1`, the XC50 was found to be 406 nM.
With `Cc1cc2c(cc1C(F)(F)F)N(C(=O)Nc1cc(C(=O)NC3CCN(Cc4ccccc4)C3)cc(C(F)(F)F)c1)CC2` (stereo not drawn) the figure was 339 nM.
The compound `COc1ccc2ncc(F)c(CCN3CCC(CNC(=O)C(=O)c4c[nH]c5ccccc45)CC3)c2n1` showed an XC50 of 389 nM.
For `O=C(Cc1ccccn1)Nc1cccc(-c2cccc(-c3nc4cc(C(F)(F)F)ccc4[nH]3)c2)c1`, the XC50 is 610 nM.
With `CCCCOC(=O)c1ccc(Nc2cc(C)nc3ccc(OC)cc23)cc1` the figure was 640 nM; with `CN(C)CCOc1ccc(N2CCN(CCCCNC(=O)c3ccc(/C=C/c4cc(Cl)cc(Cl)c4)cc3)CC2)cc1`, 1000 nM.
With `O=C(Nc1nc(-c2ccccn2)cs1)c1ccc(Br)s1` the figure was 1060 nM.
Turning to `CCOc1cc2ncnc(Nc3ccc(OCc4c(Cl)cccc4Cl)c(OC)c3)c2cc1OCC`, the XC50 came out at 1050 nM.
In turn, `O=C(NCc1cccc(OC(F)(F)F)c1)c1cnc2c(c1)nc(-c1c[nH]c(-c3ccccc3)n1)n2CCc1c[nH]cn1` returned an XC50 of 683 nM.
With `Cc1nc(N)nc(N)c1OCCCOc1cccc(Cl)c1Cl` the figure was 2.56 nM; with `CN(c1ccccc1)S(=O)(=O)c1cccc(NC(=O)c2ccc(-n3ccnc3)c([N+](=O)[O-])c2)c1`, 1130 nM.
In the case of `Cc1ccc2nc(Cl)c3cc(C(=O)NCCCN4CCCC4)sc3c2c1`, the XC50 worked out at 1140 nM.
With `Cc1ccc(CN2CCN(Cc3cccc(NC(=O)c4cccs4)c3)CC2)cc1C` the figure was 1030 nM; with `CCNc1cc(C(=O)N[C@@H](Cc2ccccc2)[C@H](O)CNC2(CCC(C)C)CC2)cc(N2CCCCS2(=O)=O)c1`, 1080 nM; with `COc1cc(NCCCNCc2cn(S(=O)(=O)c3ccccc3)c3ccccc23)nc2ccccc12`, 386 nM.
With `CCN(CC)CCn1c2ccccc2c2ccc(C(=O)Nc3ccc4sc(C)nc4c3)cc21` the figure was 1060 nM.
Then `CN(C)CCOc1cc(NC(=O)Nc2ccc(Oc3ccccc3)cc2)ccc1I`, with 890 nM; and `Cc1ccc(Nc2ccnc(Nc3ccc(F)c(Cl)c3)n2)cc1O`, with 733 nM; and `CC(Oc1c(C2CCN(CCCCNC(=O)c3ccc(-c4ccc(Cl)cc4)cc3)CC2)ccc2c1CCCC2)C(N)=O` (stereo not drawn), with 948 nM.
For `CCCN(CCC)C(=S)N/N=C1/C(=O)Nc2ccccc21`, the XC50 is 815 nM.
In turn, `N#CN1CC[C@@H](NS(=O)(=O)Cc2ccc(Cl)c(Cl)c2)C1` showed an XC50 of 532 nM.
Then `O=C(Nc1cccc(-c2cccc(-c3nc4cc(C(F)(F)F)ccc4[nH]3)c2)c1)c1ccoc1`, with 277 nM.
Then `O=C1OC2(CN1CC1CCN(Cc3ccc(O)c(Cl)c3)CC1)c1ccccc1-c1ccccc12`, with 756 nM.
The compound `CCN(c1ccccc1)S(=O)(=O)c1ccc(OC)c(NC(=O)c2cccc(C(F)(F)F)c2)c1` gave an XC50 of 881 nM.
With `COc1ccc(CCNCCCCCCNCCCc2ccc(Cl)cc2)cc1OC` the figure was 951 nM.
Then `CC(=O)c1cccc(NC(=O)C2c3ccccc3C(=O)N(CC(C)C)C2c2cccs2)c1` (stereo not drawn), with 590 nM.
`Cc1cc(C(=O)NC2CCN(CC3(c4ccccc4)CCCCC3)CC2)on1`: the XC50 was determined as 258 nM.
The compound `O=C(C=Cc1ccc(Cl)c(Cl)c1)NCCCCCN1CCC(CCNS(=O)(=O)c2ccc(F)cc2)CC1` yielded an XC50 of 1090 nM.
Then `Cc1cc(N[C@@H](CC(C)C)C(=O)Nc2ccccc2)nc(NCCc2ccc(F)cc2)n1`, with 1090 nM; and `Cc1cc2c(NC(=O)NC3CCN(CCc4ccccc4Cl)CC3)cccc2cn1`, with 387 nM.
Then `Cc1[nH]c(C)c(-c2ccc(-c3ccc(C#N)cc3)nc2)c(=O)c1Br`, with 981 nM.
Then `Cc1cc(O)cc2c(C3CCN(CC4CCN(C(=O)/C=C/c5ccc(Cl)c(Cl)c5)CC4)CC3)c[nH]c12`, with 1090 nM; and `O=C(NCc1ccc(C(=O)NC2CCCCC2)cc1)c1ccc(O)c(-c2ccc(Cl)c(Cl)c2)c1`, with 875 nM; and `CC(C)(C)c1ccc(CN2CCCCC(NC(=O)c3cc(-c4ccccc4F)cs3)C2)cc1` (stereo not drawn), with 267 nM.
As to `O=C(CC(=O)Nc1cc(Cl)cc(Cl)c1)Nc1cc(Cl)cc(Cl)c1`, the XC50 stood at 159 nM.
